From patent publication US4366159A (priority 1981, dated 1982)
Where a name gives a salt, the structure may show the parent alone. Read-outs that look alike come from different tables or passages of the source.

Columns and labels:
[1] = anesthetic requirement (MAC) for cyclopropane, tail-clamp technique; assay type: in vivo, Sprague-Dawley rats
Method: (§1) The effect on anesthetic requirements and PaCO2 of combined doses of nalbuphine hydrochloride and morphine sulfate was evaluated in 18 Sprague-Dawley rats (200-350 gms). Anesthetic requirements for cyclopropane anesthetic of each rat was determined using a tail-clamp technique (Munson et al., The Effect of Acute Hypothyroidism and Hyperthyoidism on Cyclopropane Requirements (MAC) in Rats, Anesthesiology 1968; 29:1094-1098). After induction of anesthesia with cyclopropane, the femoral artery and vein were exposed and catheterized with PE50 tubing. Anesthetic requirement as measured by minimal alveolar concentration (MAC) was determined and thereafter nalbuphine hydrochloride was administered intravenously. Upon completion of control measurements, a bolus dose of 0.04 mg/kg of nalbuphine hydrochloride was followed with a constant infusion of 0.1 mg/kg/min. After 45 minutes of continuous infusion, MAC was redetermined and arterial blood sampling repeated. The rat then received either 2, 4 or 8 mg/kg subcutaneously of morphine sulfate and after 30 minutes MAC and arterial blood gas (ABG) values (PaO2, PaCO2, pH, HCO3) redetermined.
The effect of morphine sulfate alone on anesthetic requirement and respiration was evaluated in a separate group of five Sprague-Dawley rats. After baseline measurements of anesthetic requirement (MAC) and ABG values, 2 mg/kg of morphine sulfate was given subcutaneously and after 30 minutes, repeat measurements of anesthetic requirements and blood gases were carried out.
Statistical evaluation was carried out using analysis of variance comparing the groups of animals at different infusion rates of nalbuphine hydrochloride, and for the animals receiving the combined morphine sulfatenalbuphine hydrochloride doses.

[2] = mouse antiphenylquinone writhing test; conditions: for % mice blocked: 0:1 (morphine SO4 only)
[3] = human, in vivo
Method: The nalbuphine was administered parenterally as each patient was coming out of the anesthesia. […] The respiratory effect of the nalbuphine was established by measurement of arterial PaCO2 using a blood gas analyzer well known in respiratory therapy. Normal PaCO2 is in the range of 35-42 mmHg. All arterial samples were obtained on an inspired oxygen concentration of 100%.

[4] = Method: as §1
The effect of morphine sulfate alone on anesthetic requirement and respiration was evaluated in a separate group of five Sprague-Dawley rats. […]

[5] = from a previous study, cited from earlier work

Row | SMILES | MAC Reduction % (Mean ± SEM) ([1]; rat, in vivo) [%] | ED50 at 10 min., Nalbuphine HCl ([2]; mouse, in vivo, sc) [mg/kg] | duration of analgesia [3] [h] | emergence from anesthesia [3] | hypoxia and shunt [3] | pH after nalbuphine [3] | respiratory acidosis present before nalbuphine [3] | respiratory depression resulting from the narcotic [3] | PaCO2 (Mean ± SEM) ([4]; rat, in vivo) [mmHg] | MAC Reduction % (Mean ± SEM) ([5]; morphine SO4 2 mg/kg sc) [%] | MAC Reduction % (Mean ± SEM) ([5]; morphine SO4 4 mg/kg sc) [%] | MAC Reduction % (Mean ± SEM) ([5]; morphine SO4 8 mg/kg sc) [%] | MAC Reduction % (Mean ± SEM) ([1]; morphine SO4 2 mg/kg sc, 30 min) [%] | MAC Reduction % (Mean ± SEM) ([1]; morphine SO4 2 mg/kg sc, 30 min, listed as morphine) [%] | % mice blocked ([2]; s.c., 10 min, 0.373 mg/kg) [%] | % mice blocked ([2]; s.c., 10 min, 0.745 mg/kg) [%] | % mice blocked ([2]; s.c., 10 min, 1.49 mg/kg) [%] | % mice blocked ([2]; s.c., 10 min, 2.98 mg/kg) [%] | ED50 at 10 min., Morphine SO4 ([2]; s.c., 10 min, morphine SO4 dose (alone or as component of combination), N = 30 mice/dose, 95% conf. limits printed on following lines) [mg/kg] | mean PaCO2 compared with comparable MAC reduction dose of nalbuphine ([4]; morphine 2 mg/kg)
1 | Oc1ccc2c3c1O[C@H]1[C@@H](O)CC[C@@]4(O)[C@@H](C2)N(CC2CCC2)CC[C@]314 [Nalbuphine HCl, (-)-17-(cyclobutylmethyl)-4,5α-epoxymorphinan-3,6α, 14-triol] | 21.62 ± 0.69 | 2.17 | 8 to 12 | smooth, rapid | No patient was hypoxic, nor was there any significant shunt present | 7.35±0.6 | completely reversed | reversed in all cases | 48.31 ± 1.07 |  |  |  |  |  |  |  |  |  |  | 
2 | CN1CC[C@]23c4c5ccc(O)c4O[C@H]2[C@@H](O)C=C[C@H]3[C@H]1C5 [Morphine SO4] |  |  |  |  |  |  |  |  |  | 21.80 ± 1.48 | 32.63 ± 0.98 | 54.87 ± 1.94 | 22 ± 0.55 | 22 | 17 | 37 | 83 | 100 | 0.832 | significantly higher
